In article PMC12079163 (Drug Development Research, 2025):

Key:
[1] = Solubility under the assay conditions; format: physicochemical; conditions: HDAC, BCL‐2 and cell assays; data not reliable, not reported
[2] = target: T1, HDAC6 (Homo sapiens, UniProt Q9UBN7); conditions: ref Zhou et al. [2019]; cited from earlier work
T1 sequence (Q9UBN7 1-1215): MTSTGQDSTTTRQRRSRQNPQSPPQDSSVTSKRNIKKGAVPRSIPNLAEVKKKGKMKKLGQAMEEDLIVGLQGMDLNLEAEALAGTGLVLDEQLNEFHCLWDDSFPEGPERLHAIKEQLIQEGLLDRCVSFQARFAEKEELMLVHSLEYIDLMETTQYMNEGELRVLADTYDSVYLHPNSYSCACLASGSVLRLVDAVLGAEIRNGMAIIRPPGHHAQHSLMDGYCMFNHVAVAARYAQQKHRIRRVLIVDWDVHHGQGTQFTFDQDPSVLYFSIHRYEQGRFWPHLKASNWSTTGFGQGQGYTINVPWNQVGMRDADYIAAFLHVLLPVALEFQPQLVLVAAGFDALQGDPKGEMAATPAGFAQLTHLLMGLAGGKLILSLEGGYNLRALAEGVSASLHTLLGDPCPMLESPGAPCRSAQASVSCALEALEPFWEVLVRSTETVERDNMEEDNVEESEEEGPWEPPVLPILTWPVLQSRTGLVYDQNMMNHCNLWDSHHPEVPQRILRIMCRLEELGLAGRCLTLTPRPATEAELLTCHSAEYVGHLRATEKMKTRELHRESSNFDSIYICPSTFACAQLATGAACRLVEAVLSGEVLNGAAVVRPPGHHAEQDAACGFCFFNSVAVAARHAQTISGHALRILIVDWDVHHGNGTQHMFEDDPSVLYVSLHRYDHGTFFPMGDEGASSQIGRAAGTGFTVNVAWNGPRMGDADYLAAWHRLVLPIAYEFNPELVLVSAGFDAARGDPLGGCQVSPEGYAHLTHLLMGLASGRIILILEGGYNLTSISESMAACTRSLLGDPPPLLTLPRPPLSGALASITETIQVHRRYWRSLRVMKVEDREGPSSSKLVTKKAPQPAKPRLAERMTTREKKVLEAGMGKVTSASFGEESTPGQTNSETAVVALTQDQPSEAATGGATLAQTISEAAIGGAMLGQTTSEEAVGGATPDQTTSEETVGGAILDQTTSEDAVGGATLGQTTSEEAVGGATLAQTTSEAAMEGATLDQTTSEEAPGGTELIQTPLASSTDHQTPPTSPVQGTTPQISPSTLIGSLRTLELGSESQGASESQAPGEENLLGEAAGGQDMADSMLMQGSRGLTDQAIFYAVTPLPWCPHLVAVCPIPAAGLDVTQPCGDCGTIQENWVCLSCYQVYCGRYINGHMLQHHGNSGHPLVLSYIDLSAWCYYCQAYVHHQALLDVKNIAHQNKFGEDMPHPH

SMILES | solubility under the assay conditions [1] | selectivity for HDAC6 over HDAC1 [2]
CC1(C)CCC(CN2CCN(c3ccc(C(=O)NS(=O)(=O)c4ccc(NCC5CCN(c6c(F)cc(C(=O)NO)cc6F)CC5)c([N+](=O)[O-])c4)c(Oc4cnc5[nH]ccc5c4)c3)CC2)=C(c2ccc(Cl)cc2)C1 [AMC‐4‐101, 4‐(4‐(((4‐(N‐(2‐((1H‐pyrrolo[2,3‐b]pyridin‐5‐yl)oxy)‐4‐(4‐((4′‐chloro‐5,5‐dimethyl‐3,4,5,6‐tetrahydro‐[1,1′‐biphenyl]‐2‐yl)methyl)piperazin‐1‐yl)benzoyl)sulfamoyl)‐2‐nitrophenyl)amino)methyl)piperidin‐1‐yl)‐3,5‐difluoro‐N‐hydroxybenzamide] | Limited solubility | 
O=C(CCCCCCC(=O)Nc1ccccc1)NO [SAHA] |  | about threefold
